Test results from ChEMBL document CHEMBL3774333, “Identification of SNAIL1 Peptide-Based Irreversible Lysine-Specific Demethylase 1-Selective Inactivators” (J Med Chem, 2016).
pIC50: −log10 of the molar value. Blank lines part the entries; values can stand above or below the molecule they belong to. Activity calls are given as the source filed them. The calls are words filed in the database; no cut-off is given here.

Assays:
[1] = molecular target: T1, Lysine-specific histone demethylase 2 (Homo sapiens) (UniProt Q8NB78); assay: Inhibition of LSD2 in human HeLa cells assessed as H3K4me1/H3 ratio at 20 uM after 24 hrs by Western blot analysis in absence of fetal bovine serum; assay type: cell-based
T1 sequence (whole entry): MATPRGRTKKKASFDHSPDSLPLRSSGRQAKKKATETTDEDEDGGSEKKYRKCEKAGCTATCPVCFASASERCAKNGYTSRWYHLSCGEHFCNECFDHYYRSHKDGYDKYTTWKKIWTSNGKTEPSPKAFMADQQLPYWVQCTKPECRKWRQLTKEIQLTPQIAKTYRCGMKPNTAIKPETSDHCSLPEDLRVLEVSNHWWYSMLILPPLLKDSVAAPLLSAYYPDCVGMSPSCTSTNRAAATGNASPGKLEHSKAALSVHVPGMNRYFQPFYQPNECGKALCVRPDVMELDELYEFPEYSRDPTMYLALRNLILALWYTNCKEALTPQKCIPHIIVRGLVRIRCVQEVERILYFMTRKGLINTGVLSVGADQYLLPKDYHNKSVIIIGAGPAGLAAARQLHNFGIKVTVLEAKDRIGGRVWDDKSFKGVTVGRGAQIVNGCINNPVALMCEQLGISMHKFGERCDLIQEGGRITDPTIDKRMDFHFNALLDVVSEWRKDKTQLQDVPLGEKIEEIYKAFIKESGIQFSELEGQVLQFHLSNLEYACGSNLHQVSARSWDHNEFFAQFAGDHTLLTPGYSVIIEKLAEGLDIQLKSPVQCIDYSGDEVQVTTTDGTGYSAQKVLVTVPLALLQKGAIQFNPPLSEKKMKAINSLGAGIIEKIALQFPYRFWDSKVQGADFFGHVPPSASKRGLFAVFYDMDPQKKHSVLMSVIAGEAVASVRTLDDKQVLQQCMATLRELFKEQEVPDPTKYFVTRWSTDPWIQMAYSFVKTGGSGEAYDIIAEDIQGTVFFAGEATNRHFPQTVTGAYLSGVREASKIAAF

[2] = molecular target: T2, Lysine-specific histone demethylase 1A (Homo sapiens, UniProt O60341); assay: Inhibition of LSD1 in human HeLa cells assessed as H3K4me2/H3 ratio at 10 uM after 24 hrs by Western blot analysis in absence of fetal bovine serum; assay type: cell-based
[3] = species: Homo sapiens
[4] = species: Homo sapiens; remark: listed apart in the source
[5] = species: Homo sapiens; remark: listed apart in the source
[6] = species: Homo sapiens; remark: listed apart in the source
[7] = molecular target: T2, Lysine-specific histone demethylase 1A; assay: Inhibition of LSD1 in human HeLa cells assessed as H3K4me2/H3 ratio at 20 uM after 24 hrs by Western blot analysis in absence of fetal bovine serum; assay type: cell-based
[8] = molecular target: T2, Lysine-specific histone demethylase 1A; assay: Inhibition of LSD1 in human HeLa cells assessed as H3K4me2/H3 ratio at 5 uM after 24 hrs by Western blot analysis in absence of fetal bovine serum; assay type: cell-based
[9] = molecular target: T3, Lysine-specific demethylase 5A (Homo sapiens, UniProt P29375); assay: Inhibition of JARID1A in human HeLa cells assessed as H3K4me3/H3 ratio at 20 uM after 24 hrs by Western blot analysis in absence of fetal bovine serum; assay type: cell-based
[10] = molecular target: T1, Lysine-specific histone demethylase 2 (Homo sapiens); assay: Inhibition of LSD2 in human HeLa cells assessed as H3K4me1/H3 ratio at 5 uM after 24 hrs by Western blot analysis in absence of fetal bovine serum; assay type: cell-based
[11] = molecular target: T1, Lysine-specific histone demethylase 2 (Homo sapiens); assay: Inhibition of LSD2 in human HeLa cells assessed as H3K4me1/H3 ratio at 10 uM after 24 hrs by Western blot analysis in absence of fetal bovine serum; assay type: cell-based
[12] = molecular target: T3, Lysine-specific demethylase 5A; assay: Inhibition of JARID1A in human HeLa cells assessed as H3K4me3/H3 ratio at 5 uM after 24 hrs by Western blot analysis in absence of fetal bovine serum; assay type: cell-based
[13] = molecular target: T3, Lysine-specific demethylase 5A; assay: Inhibition of JARID1A in human HeLa cells assessed as H3K4me3/H3 ratio at 10 uM after 24 hrs by Western blot analysis in absence of fetal bovine serum; assay type: cell-based
[14] = molecular target: T2, Lysine-specific histone demethylase 1A; assay: Inhibition of LSD1 in human HeLa cells assessed as increase in H3K4me2 level after 24 hrs by Western blot analysis in absence of fetal bovine serum; assay type: cell-based
[15] = tested on: HeLa; assay: Antiproliferative activity against human HeLa cells assessed as reduction in cell viability at 25 to 100 uM treated for 24 hrs measured after 48 hrs by alamar blue assay in absence of fetal bovine serum; assay type: functional, cell-based
[16] = molecular target: T3, Lysine-specific demethylase 5A
Description: Inhibition of JARID1A (unknown origin) using H3K4me3 peptide substrate preincubated for 5 mins followed by substrate addition by MALDI-TOF mass spectrometric analysis

[17] = molecular target: T2, Lysine-specific histone demethylase 1A; details: 22 h
[18] = molecular target: T2, Lysine-specific histone demethylase 1A; assay: biochemical
Description: Inhibition of full length N-terminal His-tagged human recombinant LSD1 (1 to 852 residues) expressed in Escherichia coli BL21(DE3) cells using H3K4me2 peptide as substrate preincubated for 5 mins followed by substrate addition measured for 30 mins by peroxidase coupled assay

[19] = molecular target: T4, Lysine-specific histone demethylase 2 (Homo sapiens, UniProt Q8NB78); assay: biochemical
T4 sequence (Q8NB78 whole entry): T1 sequence (whole entry)
Description: Inhibition of full length N-terminal His-tagged human LSD2 (1 to 822 residues) expressed in Escherichia coli BL21(DE3) cells using H3K4me2 peptide substrate by MALDI-TOF mass spectrometric analysis

[20] = molecular target: T5, Amine oxidase [flavin-containing] A (Homo sapiens, UniProt P21397); assay: biochemical
T5 sequence (P21397 whole entry): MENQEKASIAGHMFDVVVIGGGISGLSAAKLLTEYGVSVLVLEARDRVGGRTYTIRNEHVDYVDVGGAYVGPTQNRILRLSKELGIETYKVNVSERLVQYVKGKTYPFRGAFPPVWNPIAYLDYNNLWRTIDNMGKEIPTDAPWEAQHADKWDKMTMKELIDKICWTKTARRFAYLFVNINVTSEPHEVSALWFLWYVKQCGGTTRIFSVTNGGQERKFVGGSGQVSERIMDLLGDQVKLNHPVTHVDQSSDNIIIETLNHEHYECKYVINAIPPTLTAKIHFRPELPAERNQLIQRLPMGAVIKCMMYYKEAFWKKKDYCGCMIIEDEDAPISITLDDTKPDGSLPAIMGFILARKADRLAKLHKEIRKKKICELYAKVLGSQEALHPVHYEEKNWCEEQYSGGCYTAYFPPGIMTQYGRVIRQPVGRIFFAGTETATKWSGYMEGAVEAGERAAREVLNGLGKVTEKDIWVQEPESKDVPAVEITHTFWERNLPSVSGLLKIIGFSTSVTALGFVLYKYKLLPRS
Description: Inhibition of human recombinant MAO-A expressed in baculovirus infected BTI insect cells using (4S)-4,5-dihydro-2-(6-hydroxybenzothiazolyl)-4-thiazolecarboxylic acid as substrate incubated for 60 mins by MAO-Glo assay

[21] = molecular target: T6, Amine oxidase [flavin-containing] B (Homo sapiens, UniProt P27338); assay: biochemical
T6 sequence (P27338 whole entry): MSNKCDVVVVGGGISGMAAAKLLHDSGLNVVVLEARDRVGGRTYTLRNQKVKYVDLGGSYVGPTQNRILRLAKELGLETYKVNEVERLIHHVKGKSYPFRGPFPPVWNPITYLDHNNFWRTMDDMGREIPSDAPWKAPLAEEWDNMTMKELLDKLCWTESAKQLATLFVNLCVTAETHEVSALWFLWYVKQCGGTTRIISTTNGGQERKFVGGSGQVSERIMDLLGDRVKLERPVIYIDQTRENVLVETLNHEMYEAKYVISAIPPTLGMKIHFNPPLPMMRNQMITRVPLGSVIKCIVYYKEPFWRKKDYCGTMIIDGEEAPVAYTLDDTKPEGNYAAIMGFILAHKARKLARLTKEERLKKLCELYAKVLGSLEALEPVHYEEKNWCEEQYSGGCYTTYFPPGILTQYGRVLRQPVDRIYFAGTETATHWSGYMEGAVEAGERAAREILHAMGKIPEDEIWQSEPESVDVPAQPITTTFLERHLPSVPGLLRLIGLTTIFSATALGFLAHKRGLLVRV
Description: Inhibition of human recombinant MAO-B expressed in baculovirus infected BTI insect cells using (4S)-4,5-dihydro-2-(6-hydroxybenzothiazolyl)-4-thiazolecarboxylic acid as substrate incubated for 60 mins by MAO-Glo assay

[22] = molecular target: T2, Lysine-specific histone demethylase 1A; assay: Drug metabolism assessed as LSD1 (unknown origin)-mediated compound-FAD adduct formation after 22 hrs by MALDI-TOF mass spectrometric analysis in presence of excess of H3K4me2 substrate peptide; assay type: ADME

T3 sequence (P29375 whole entry): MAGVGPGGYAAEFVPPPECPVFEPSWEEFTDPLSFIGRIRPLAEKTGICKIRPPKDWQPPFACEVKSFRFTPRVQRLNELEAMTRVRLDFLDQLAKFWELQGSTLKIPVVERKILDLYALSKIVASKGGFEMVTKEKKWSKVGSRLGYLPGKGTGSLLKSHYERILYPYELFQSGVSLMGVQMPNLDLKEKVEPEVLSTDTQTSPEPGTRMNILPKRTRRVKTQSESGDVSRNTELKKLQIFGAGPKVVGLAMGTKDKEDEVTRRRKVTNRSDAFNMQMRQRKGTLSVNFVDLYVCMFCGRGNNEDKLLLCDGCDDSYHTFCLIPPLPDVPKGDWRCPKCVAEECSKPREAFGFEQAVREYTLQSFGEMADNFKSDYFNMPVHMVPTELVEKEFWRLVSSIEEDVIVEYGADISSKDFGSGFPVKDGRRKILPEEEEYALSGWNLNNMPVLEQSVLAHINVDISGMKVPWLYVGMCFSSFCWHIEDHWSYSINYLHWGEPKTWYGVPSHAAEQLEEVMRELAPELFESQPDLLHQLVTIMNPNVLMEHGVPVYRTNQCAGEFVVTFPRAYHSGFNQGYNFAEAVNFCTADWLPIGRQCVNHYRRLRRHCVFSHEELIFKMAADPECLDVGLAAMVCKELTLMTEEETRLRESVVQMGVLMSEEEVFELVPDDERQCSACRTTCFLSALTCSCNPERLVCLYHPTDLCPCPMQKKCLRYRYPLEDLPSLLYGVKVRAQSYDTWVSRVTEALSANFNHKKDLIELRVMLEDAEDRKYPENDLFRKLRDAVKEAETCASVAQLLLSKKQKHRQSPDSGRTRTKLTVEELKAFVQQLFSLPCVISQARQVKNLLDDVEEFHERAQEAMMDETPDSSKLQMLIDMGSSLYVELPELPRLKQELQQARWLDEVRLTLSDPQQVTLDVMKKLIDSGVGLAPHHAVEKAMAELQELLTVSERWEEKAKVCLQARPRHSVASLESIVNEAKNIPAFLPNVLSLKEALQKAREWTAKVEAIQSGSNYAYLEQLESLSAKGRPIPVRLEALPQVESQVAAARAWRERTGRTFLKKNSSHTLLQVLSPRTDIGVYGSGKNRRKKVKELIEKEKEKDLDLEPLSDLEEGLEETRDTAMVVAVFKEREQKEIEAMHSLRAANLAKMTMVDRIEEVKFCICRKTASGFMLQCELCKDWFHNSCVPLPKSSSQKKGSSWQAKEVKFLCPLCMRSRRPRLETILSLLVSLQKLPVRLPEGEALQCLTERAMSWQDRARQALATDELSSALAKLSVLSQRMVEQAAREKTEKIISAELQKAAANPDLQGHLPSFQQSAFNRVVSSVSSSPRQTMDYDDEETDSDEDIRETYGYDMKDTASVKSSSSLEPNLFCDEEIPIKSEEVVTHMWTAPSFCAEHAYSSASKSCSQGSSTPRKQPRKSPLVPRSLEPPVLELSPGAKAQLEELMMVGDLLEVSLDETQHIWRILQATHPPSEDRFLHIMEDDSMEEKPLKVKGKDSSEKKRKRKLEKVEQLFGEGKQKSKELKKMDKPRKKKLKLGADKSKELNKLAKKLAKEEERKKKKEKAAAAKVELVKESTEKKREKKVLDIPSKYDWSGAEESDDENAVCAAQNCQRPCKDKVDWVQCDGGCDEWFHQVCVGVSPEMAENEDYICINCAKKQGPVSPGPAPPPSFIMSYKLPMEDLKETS

Ratio [1]: 1.08 | Ratio [2]: 1.9 | Ratio [7]: 2.19 | Ratio [8]: 1.72 | Ratio [9]: 0.98 | Ratio [10]: 1.01 | Ratio [11]: 0.98 | Ratio [12]: 1.04 | Ratio [13]: 0.95 | inhibition [14]: Dose-dependent effect | pIC50 [16]: 5.17 | Drug metabolism [17]: metabolite_detected | pIC50 [18]: 6.55 | pIC50 [19]: 4.88 | pIC50 [20]: < 4.52 | pIC50 [21]: 4.54
Structure (SMILES): CC(C)C[C@H](NC(=O)[C@H](CCCNN)NC(=O)[C@H](CO)NC(=O)[C@@H](CCCNC(=N)N)NC(=O)[C@H]1CCCN1)C(=O)N[C@H](C(=O)N[C@@H](CCCNC(=N)N)C(=O)N[C@@H](CCCCNC(=O)[C@@H](CCCNC(=N)N)NC(=O)[C@@H](CCCNC(=N)N)NC(=O)[C@@H](CCCNC(=N)N)NC(=O)[C@@H](CCCNC(=N)N)NC(=O)[C@@H](CCCNC(=N)N)NC(=O)[C@@H](CCCNC(=N)N)NC(=O)[C@@H](CCCNC(=N)N)NC(=O)[C@@H](N)CCCNC(=N)N)C(=O)N1CCC[C@H]1C(=O)N[C@@H](CO)C(=O)N[C@@H](CC(=O)O)C(=O)N1CCC[C@H]1C(=O)N[C@@H](CC(N)=O)C(=O)N[C@@H](CCCNC(=N)N)C(=O)N[C@@H](CCCCN)C(=O)N1CCC[C@H]1C(=O)N[C@H](CC(N)=O)C(=O)N[C@@H](Cc1ccc(O)cc1)C(=O)N[C@@H](CO)C(=O)N[C@@H](CCC(N)=O)C(N)=O)C(C)C
Ratio IC50 [3]: 23 | Ratio IC50 [4]: > 94 | Ratio IC50 [5]: 94 | Ratio IC50 [6]: 16 | Activity [15]: Active

Drug metabolism [22]: metabolite_notdetected | pIC50 [16]: < 4.30 | pIC50 [18]: 6.36 | pIC50 [19]: < 4.30 | pIC50 [20]: < 4.52 | pIC50 [21]: < 4.52
Structure (SMILES): CC(C)C[C@H](NC(=O)[C@H](CCCNN)NC(=O)[C@H](CO)NC(=O)[C@H](CCCNC(=N)N)NC(=O)[C@@H]1CCCN1)C(=O)N[C@H](C(=O)N[C@@H](CCCNC(=N)N)C(=O)N[C@@H](CCCCN)C(=O)N1CCC[C@H]1C(=O)N[C@@H](CO)C(=O)N[C@@H](CC(=O)O)C(=O)N1CCC[C@H]1C(=O)N[C@@H](CC(N)=O)C(=O)N[C@@H](CCCNC(=N)N)C(=O)N[C@@H](CCCCN)C(=O)N1CCC[C@H]1C(=O)N[C@@H](CC(N)=O)C(=O)N[C@@H](Cc1ccc(O)cc1)C(=O)N[C@@H](CO)C(=O)N[C@@H](CCC(N)=O)C(N)=O)C(C)C
